# From patent US20190209454A9, “DETERMINATION OF MELANIN INHIBITION POTENTIAL OF NATURAL INGREDIENTS” (Kemin Industries, Inc., priority 2016, published 2019)
# Legend:
# mushroom tyrosinase = experiment: Tyrosinase inhibition assay; type: biochemical; settings: for tyrosinase enzyme inhibition versus kojic acid: even at high concentrations (5%)
# Procedure: Rosamox (0.1%, 0.05% and 0.01%), Lysofix dry (0.1%, 0.05% & 0.01%) and Chinese lantern oil (0.1%, 0.05%, 0.01% & 0.005%) were tested for inhibition of tyrosinase enzyme activity. Kojic acid (2%, 1% & 0.5%), β-arbutin (5%, 2%, 1% & 0.5%) and hydroquinone (5%, 2%, 1% & 0.5%) served as positive controls in this study. Rosamox and Chinese lantern oil samples were prepared in Dimethylsulfoxide (DMSO). Lysofix sample, positive controls, 3,4-dihydroxyphenyl-alanine (L-DOPA) and mushroom tyrosinase were prepared using 0.1 M phosphate buffer (pH-6.6).
# Tyrosinase inhibition potential of natural ingredients was measured using a modified method published previously by Uchida et al^12. Briefly, the test samples or positive control (20 μL) were added to the reaction mixture containing 0.12 mL of 0.1 M potassium phosphate buffer (pH 6.6) in 96 well microplates and incubated at room temperature for 2 minutes. After 2 minutes of incubation, 40 μL of 10 mM L-DOPA solution was added to the reaction mixture and incubated for 5 minutes at 37° C. using a benchtop incubator (Fisher scientific, PA). Twenty microliters of mushroom tyrosinase (200 units/mL) was added to the above reaction mixture and incubated at 37° C. in a conventional lab incubator (Fisher Scientific, PA) for 10 minutes. The amount of dopachrome produced in the reaction mixture was measured spectrophotometrically using Spectramax Me5 plate reader at 475 nm. The tyrosinase activity and the % inhibition of tyrosinase in presence of test material were calculated as follows:
# Tyrosinase activity=(S(Abs)−B(Abs))/C(Abs)×100
# Inhibition (%)=1−{(S(Abs)−B(Abs))}/C(Abs)×100 Equation 1. • Formula for Measuring tyrosinase activity and % tyrosinase inhibition, where S(Abs)—sample absorbance; B(Abs)—Blank absorbance (Without enzyme) and C(Abs)—Control Absorbance [Buffer and DMSO].
# [1] = system: murine melanoma cell model; settings: cited from earlier work
# [2] = system: melanocyte-keratinocyte co-culture (HEK001 keratinocytes and primary epidermal melanocytes); experiment: Melanin inhibition in melanocyte-keratinocyte co-culture; type: cell-based, human
# Procedure: Cell culture studies were performed using Human Epidermal Keratinocytes (HEK) continuous cell lines [HEK001 (ATCC® CRL-2404™) lot #61331463] and Primary epidermal melanocytes (ATCC PCS-200-013, lot #60948598). HEK cells were grown in the HEK growth media consisting of keratinocytes serum free medium (GIBCO-BRL 17005042, lot #1638561) with 5 ng/mL human recombinant epidermal growth factor (EGF) (ATCC, lot #1584416) and 2 mM L-glutamine (ATCC, lot #62195752) (without bovine pituitary extract and serum). HEK growth media was supplemented with penicillin (10000 units) and streptomycin (10 mg/mL) solution (Gibco, lot #1469707). Primary epidermal melanocytes growth media consisting of Dermal cell basal medium (ATCC PCS-200-030) with Melanocytes Growth kit [ATCC PCS-200-042] (rh Insulin 5 μg/mL, Ascorbic acid 50 μg/mL, L-glutamine 6 mM, Epinephrine calcium chloride 1.5 μM peptide growth factor and M8 supplement) and supplemented with penicillin (10 units/mL)-streptomycin (10 μg/mL)-Amphotericin B solution (25 ng/mL). […]
# HEK cells were harvested by treatment with trypsin/EDTA solution and resuspended in HEK media. Viable cells were determined by trypan blue exclusion study and counted using a hemocytometer. […]
# MelanoDerm tissue = experiment: Microscopic observation of MelanoDerm tissue; type: cell-based, human; settings: end of 21 days
# Procedure: For visualization of treatment effect on tissue culture, microscopic observation of MelanoDerm tissue on day 1, 4, 10, 14 and finally on day 21 was carried out using glass bottom microwell dish with the help of benchtop inverted microscope (Nikon Inc., NY) at 20× magnification. Images were captured using Tucsen camera (Xintu Photonics Co., China) attached to the microscope.
compound,measurement,setting,value
"Oc1ccc(O)cc1 [Hydroquinone, hydroquinone]",tyrosinase enzyme inhibition versus kojic acid,mushroom tyrosinase,not as effective as kojic acid
CCCCC/C=C\C/C=C\CCCCCCCC(=O)O [Linoleic acid],reduction of melanogenesis and amount of tyrosinase protein,[1],effective in reduction of melanogenesis
"O=c1cc(CO)occ1O [kojic acid, Kojic acid]",tyrosinase enzyme inhibition compared to control,"mushroom tyrosinase; all concentrations (0.5%, 1% and 2%)",effective in inhibiting tyrosinase enzyme
same,melanin production compared to control,"[2]; 2% (highest tested concentration), p<0.005",maximum effect
same,melanin production compared to control,"[2]; tested concentrations (2%, 1%, 0.5%), 5 days treatment",significant reduction in melanin production
same,melanin granules in microscopic images,MelanoDerm tissue; 0.5%,presence of some melanin granules
same,melanin granules in microscopic images,MelanoDerm tissue; 1% and 2%,no sign of melanin granules
OC[C@H]1O[C@@H](Oc2ccc(O)cc2)[C@H](O)[C@@H](O)[C@@H]1O [β-arbutin],tyrosinase enzyme inhibition versus kojic acid,mushroom tyrosinase,not as effective as kojic acid
